“Also recorded” adds a separate entry of the source.
How the values were obtained:
[1] = system: canonical Wnt signalling (β-catenin/TCF-dependent GFP) in HEK293 reporter cell line; experiment: TOP-GFP reporter assay (Wnt3a-induced); assay type: cell-based; settings: Homo sapiens, 24 h, read-out: IC 50 Wnt3a-induced Wnt activation (TOP-GFP)
Excerpt: Taking advantage of a lentivirus that encodes GFP in a β -catenin/TCF-dependent fashion (TOP-GFP, SABiosciences), a stable HEK293 reporter cell line was established to evaluate the inhibitory effect of compounds 18, 20, and 21 on canonical Wnt signalling activity. TOP-GFP expression in this cell line was induced by the ligand Wnt3a, which directly activates the Frizzled–Dishevelled complex and protects β -catenin from degradation by the destruction complex (Fig. 2a).
The lentivirus particle (CCS-018L, SABiosciences) encoding GFP under the control of a basal promoter element (TATA box) joined to tandem repeats of a consensus TCF/LEF binding site was transfected into HEK293 cells. Stable cells were selected by puromycin (2 µgmL^-1 ) treatment. Wnt signalling activity indicated by GFP intensity was measured by flow cytometry after 24 h incubation with recombinant mouse Wnt3a (100 ng mL ^-1 ) or GSK3 inhibitor CHIR99021 (3 µM ) in the presence of Dvl inhibitors.

SW480 cells [2] = experiment: Trans-well migration assay; assay type: cell-based; settings: 24 h, 50–100 µM
Description: (§1) Canonical Wnt signalling contributes to cancer progression by inducing high motility and invasion of cancer cells while retaining the self-renewal property of cancer-initiating cells (Fritzmann et al., 2009; Sack et al., 2011; Vermeulen et al., 2010; Malanchi et al., 2008). […] Compounds 18 and 20 prevented increased cell migration and sphere formation.
Cell motility was assessed using 24-well trans-well assay (pore diameter: 8 µm , Corning). SW480WL cells were seeded in the upper chamber in serum-free DMEM with 0.1 % BSA; 20 % serum was supplemented to medium in the lower chamber. After incubation with Wnt3a in the presence of Dvl inhibitors for 24 h, non-migrant cells were scraped off using a cotton swab; the migrated cells on the filters were stained with DAPI, photographed, and counted.

[3] = system: Wnt target genes (Axin2, LEF1, Bmp2) in HeLa cells; experiment: qRT-PCR of Wnt target genes; assay type: cell-based; settings: HeLa cells treated with Wnt3a, 24 h; 150 µM
Excerpt: (§2) Increased β -catenin protein level is a hallmark of active Wnt signalling (Kishida et al., 1999). Once β -catenin is accumulated in the cytoplasm, it can translocate into the nucleus and activate the transcription of Wnt target genes by interacting with transcription factors of the TCF/LEF family (Fig. 2a) (Behrens et al., 1996). […] Increased mRNA levels of the Wnt target genes Axin2, LEF1, and Bmp2 (Riese et al., 1997; Jho et al., 2002; Lewis et al., 2010) were induced by Wnt3a treatment, as measured by qRT-PCR, and these increases were reduced by compounds 18, 20, and 21 (Fig. 2f).
To measure the Wnt target accumulation at mRNA level, HeLa cells were treated with Wnt3a in the presence of Dvl inhibitors for 24 h. mRNA was extracted according to the standard TRIzol® protocol (Invitrogen) and reverse-transcribed using random primers (Invitrogen) and M-MLV reverse transcriptase (Promega). The qRT-PCR was performed in a iQ5 multi-colour real-time PCR detection system (Bio-Rad) using SYBR® Green (Thermo Scientific) and gene-specific primer pairs of Bmp2, Axin2, LEF1, and β -actin (endogenous control).

[4] = system: β-catenin protein level in HeLa cells; experiment: Western blotting of β-catenin levels; assay type: cell-based; settings: HeLa cells treated with Wnt3a, 24 h; 150 µM
Excerpt: as §2
To assess the β -catenin accumulation in HeLa cells, cells were treated with Wnt3a in the presence of Dvl inhibitors for 24 h and lysed in RIPA buffer (50 mM Tris, pH 8.0, 1 % NP-40, 0.5 % deoxycholate, 0.1 % SDS, 150 mM NaCl). Equal amounts of protein were loaded on a SDS-PAGE. Separated proteins were blotted onto PVDF membranes (polyvinylidene fluoride) for immunoblot analysis using anti- β -catenin antibody (610154, BD). HRP-conjugated anti-mouse antibody (715-035-150, Jackson ImmunoResearch Laboratories) was used for secondary detection with Western lightning chemiluminescence reagent plus (PerkinElmer) and Vilber Lourmat imaging system SL-3.

SW480 cells [5] = experiment: Colon sphere culture (sphere formation); assay type: cell-based; settings: serum-free non-adherent culture, 10 d; 25–50 µM
Description: as §1
SW480WL cells were trypsinized into single cells, seeded on 24-well cell culture plates, pre-coated with 250 µL poly-HEMA (12 mg mL ^-1 in 95 % ethanol, Sigma) per well, and incubated with Wnt3a in the presence of Dvl inhibitors in the sphere culture medium (F12 : DMEM 1:1 , 1 × B-27 supplement, 20 ng mL ^-1 EGF, 20 ng mL ^-1 FGF, 0.5 % methylcellulose) for 10 d. Numbers of spheres were then counted under the microscope.

Dvl-3 PDZ = target: T1, Dvl-3 PDZ (Homo sapiens, UniProt Q92997); experiment: Binding constant by isothermal titration calorimetry (ITC); settings: for T Δ S Dvl-3 PDZ / Δ G Dvl-3 PDZ / Δ H Dvl-3 PDZ: ITC; for Kd: by ITC, one-site binding model, 25 °C, read-out: K D Dvl-3 PDZ
T1 construct: spectra of Dvl-3 PDZ in the absence and presence of the compound; His-tag (cleaved yes); made in house
T1 sequence (Q92997 243-336): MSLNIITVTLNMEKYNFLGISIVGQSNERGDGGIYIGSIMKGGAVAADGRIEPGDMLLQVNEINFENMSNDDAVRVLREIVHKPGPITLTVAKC
Description: (§5) Isothermal titration calorimetry (ITC) experiments were performed using a VP-ITC system (MicroCal). Protein in 20 mM HEPES buffer and 50 mM NaCl (pH 7.4) was centrifuged and degassed before the experiment. A 200 µM ligand solution containing 2 % DMSO was injected 30 times in 10 µL aliquots at 120 s intervals with a stirring speed of 1000 rpm into a 1.4 mL sample cell containing the Dvl PDZ domain at a concentration of 20 µM at 25 ^∘ C. Control experiment was initially determined by titrating ligand into buffer at the same conditions. […] Thermodynamic properties and binding constants were determined by fitting the data with a non-linear least-squares routine using a single-site binding model with Origin (OriginLab) for ITC v.7.2 (MicroCal).

Dvl-1 PDZ = target: T2, Dvl-1 PDZ (Homo sapiens, UniProt O14640, C338S/V250I); settings: for T Δ S Dvl-1 PDZ / Δ G Dvl-1 PDZ / Δ H Dvl-1 PDZ: ITC
T2 sequence (O14640 245-338 V250I/C338S): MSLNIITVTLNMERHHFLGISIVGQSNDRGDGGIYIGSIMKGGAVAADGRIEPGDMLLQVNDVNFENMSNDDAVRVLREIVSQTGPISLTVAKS
Description: as §5

Dvl PDZ = settings: internal Frizzled sequence; ref Wong et al., 2003; Chandanamali et al., 2009; read-out: K D Dvl PDZ domains; cited from earlier work
Oct4 = experiment: Oct-luciferase reporter assay; assay type: cell-based; settings: stimulated by overexpression of Oct4
Description: (§3) To further evaluate the specificity of our Dvl inhibitors, the conventional TOPflash (Molenaar et al., 1996) and other luciferase reporter assays were performed.
(§4) Plasmids encoding a firefly luciferase reporter gene under the control of different responsive elements were transfected into HeLa cells with a pRL-SV40 normalization reporter plasmid using the Lipofectamine 2000 (Invitrogen). After desired treatment, cells were harvested in the passive lysis buffer (Promega), and 15 µL cell lysate was transferred to 96-well LumiNunc plates (Thermo Scientific). Firefly luciferase and Renilla luciferase were detected with the D-luciferin buffer (75 mM HEPES, 4 mM MgSO 4 , 20 mM DTT, 100 µM EDTA, 0.5 mM ATP, 135 µM Coenzyme A, and 100 µM D-Luciferin sodium salt; pH 8.0) and the coelenterazine buffer (15 mM Na4PPi, 7.5 mM NaAc, 10 mM CDTA, 400 mM Na 2 SO 4 , 25 µM APMBT, and 1.1 µM coelenterazine; pH 5.0), respectively, using the CentroXS LB960 lumiometer (Berthold Technologies).

[6] = system: Wnt signalling (TOP-luciferase) in HeLa cells; experiment: TOPflash luciferase reporter assay; assay type: cell-based
Description: as §3, §4

NF-κB signalling = experiment: NF-κB-luciferase reporter assay; assay type: cell-based; settings: stimulated by recombinant TNFα
Description: as §3, §4

Notch signalling = experiment: Notch-luciferase reporter assay; assay type: cell-based; settings: stimulated by overexpression of Notch intracellular domain
Description: as §3, §4

| T Δ S Dvl-3 PDZ (Dvl-3 PDZ) | Δ G Dvl-3 PDZ (Dvl-3 PDZ) | Δ H Dvl-3 PDZ (Dvl-3 PDZ) | n (stoichiometry) Dvl-3 PDZ (Dvl-3 PDZ; ITC one-site fit) | Kd (Dvl-3 PDZ) | T Δ S Dvl-1 PDZ (Dvl-1 PDZ) | Δ G Dvl-1 PDZ (Dvl-1 PDZ) | Δ H Dvl-1 PDZ (Dvl-1 PDZ) | n (stoichiometry) Dvl-1 PDZ (Dvl-1 PDZ; ITC one-site fit) | Molecule | IC50 [1] | migration of SW480 cells enhanced by Wnt3a (SW480 cells [2]) | transcription of Wnt target genes (Axin2, LEF1, Bmp2) [3] | accumulation of β-catenin [4] | sphere formation of SW480 cells enhanced by Wnt3a (SW480 cells [5]) | Kd (Dvl PDZ) | effect on Oct-luciferase (Oct4) | effect on Chir99021-induced Wnt activation (TOPflash) [6] | effect on TOP-luciferase signals stimulated by Wnt3a [6] | effect on NF-κB-luciferase (NF-κB signalling) | effect on Notch-luciferase (Notch signalling) |
| --- | --- | --- | --- | --- | --- | --- | --- | --- | --- | --- | --- | --- | --- | --- | --- | --- | --- | --- | --- | --- |
| -1.2 kcal mol ^-1 | -6.7 kcal mol ^-1 | -8.0 kcal mol ^-1 | 1.14 | 9.4 ± 0.6 µM | -4.7 kcal mol ^-1 | -7.5 kcal mol ^-1 | -12.2 kcal mol ^-1 | 1.12 | Cc1ccc(NS(=O)(=O)c2ccc(CNC(=O)c3n[nH]c4ccccc34)c(Cl)c2)c(C(=O)O)c1 [Compound 18] | 50 to 75 µM | reduced the migration; also recorded: prevented | reduced the transcription | inhibited accumulation | reduced sphere formation; also recorded: prevented |  |  |  |  |  |  |
| 0.7 kcal mol ^-1 | -6.8 kcal mol ^-1 | -5.9 kcal mol ^-1 |  | 12.5 ± 0.5 µM | -1.5 kcal mol ^-1 | -7.0 kcal mol ^-1 | -8.5 kcal mol ^-1 |  | Cc1ccc(NS(=O)(=O)c2ccc(CNC(=O)c3cc(Cl)c[nH]3)c(Cl)c2)c(C(=O)O)c1 [Compound 21] | 50 to 75 µM |  | reduced the transcription | inhibited accumulation |  |  |  |  |  |  |  |
|  |  |  |  |  |  |  |  |  | Frizzled peptide 525(GKTLQSWRRFYH)536: Frizzled peptide with internal sequence KTXXXW recognized by Dvl PDZ domains |  |  |  |  |  | ~10 µM |  |  |  |  |  |
| -3.6 kcal mol ^-1 | -6.8 kcal mol ^-1 | -10.4 kcal mol ^-1 |  | 9.8 ± 0.3 µM | -2.2 kcal mol ^-1 | -7.2 kcal mol ^-1 | -9.4 kcal mol ^-1 |  | Cc1ccc(NS(=O)(=O)c2ccc(CNC(=O)c3cc(Br)c[nH]3)c(Cl)c2)c(C(=O)O)c1 [Compound 20] | 50 to 75 µM | reduced the migration; also recorded: prevented | reduced the transcription | inhibited accumulation | reduced sphere formation; also recorded: prevented |  | no or a mild effect; also recorded: no significant inhibitory effects | no or a mild effect | specifically inhibited | no or a mild effect; also recorded: no significant inhibitory effects | no or a mild effect; also recorded: no significant inhibitory effects |

Reference: publication PMC10539800, “Small-molecule inhibitors of the PDZ domain of Dishevelled proteins interrupt Wnt signalling” (Magnetic resonance, 2021)
